Data from patent US8791113B2, “2,4-diaryl-substituted [1,8] naphthyridines as kinase inhibitors for use against cancer” (Merck Patent GmbH, priority 2010, dated 2014).

Tests used:
[1] = biological target: T1, GST-ALK5 (TGF-beta receptor kinase) (Homo sapiens, UniProt P36897); assay: In-vitro (enzyme) kinase flashplate assay: GST-ALK5 phosphorylation of GST-SMAD2 with 33P-ATP; format: biochemical; details: 384-well flashplate kinase assay, GST-ALK5 / GST-SMAD2, 33P-ATP, 30° C., 45 min; read-out: TβR activity (Example 50)
T1 sequence (P36897 34-503): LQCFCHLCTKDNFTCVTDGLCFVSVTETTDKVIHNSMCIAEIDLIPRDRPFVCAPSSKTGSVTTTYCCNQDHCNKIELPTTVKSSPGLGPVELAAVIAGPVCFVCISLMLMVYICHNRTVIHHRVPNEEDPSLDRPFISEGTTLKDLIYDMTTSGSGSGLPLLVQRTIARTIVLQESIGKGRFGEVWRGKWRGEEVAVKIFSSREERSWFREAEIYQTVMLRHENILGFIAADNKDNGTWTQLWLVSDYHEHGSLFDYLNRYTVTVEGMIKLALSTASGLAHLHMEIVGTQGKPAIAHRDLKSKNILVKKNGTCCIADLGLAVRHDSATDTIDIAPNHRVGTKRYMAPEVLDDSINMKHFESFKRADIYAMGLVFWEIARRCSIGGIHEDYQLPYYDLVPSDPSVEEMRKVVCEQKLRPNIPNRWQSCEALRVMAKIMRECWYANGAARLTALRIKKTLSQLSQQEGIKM
Description: In-vitro (Enzyme) Assay for Determination of the Efficacy of Inhibitors of the Inhibition of TGF-Beta-Mediated Effects
The kinase assay was carried out as 384-well flashplate assay. 31.2 nM of GST-ALK5, 439 nM of GST-SMAD2 and 3 mM of ATP (with 0.3 μCi of ^33P-ATP/well) were incubated in a total volume of 35 μl (20 mM of HEPES, 10 mM of MgCl2, 5 mM of MnCl2, 1 mM of DTT, 0.1% of BSA, pH 7.4) without or with test substance (5-10 concentrations) at 30° C. for 45 min. The reaction was stopped using 25 μl of 200 mM EDTA solution, filtered with suction at room temperature after 30 min, and the wells were washed with 3 times 100 μl of 0.9% NaCl solution. Radioactivity was measured in the TopCount. The IC50 values were calculated using RS1.

[2] = test system: TGF-beta-induced phosphorylation of Smad2 (Ser465/467) and Smad3 (Ser423/425) in Mv1-Lu cells; assay: Inhibition of Smad2/3 phosphorylation in Mv1Lu cells (PathScan Phospho-Smad2 ELISA); format: cell-based, mink Mustela vison; details: Neogale vison, Mv1-Lu cells, TGF-beta 1 5 ng/ml, Phospho-Smad2/3 ELISA, read-out: TβR activity (Example 51)
Description: Inhibition of Smad2/3 Phosphorylation in Mv1 Lu Cells by TGF-Beta Receptor I Kinase Inhibitors
This assay was used to determine the inhibitory potency of compounds on TGF-beta-induced phosphorylation of Smad2 (Ser465/467) and Smad3 (Ser423/425). Mv1-Lu cells (lung epithelial cell line from mink Mustela vison; ATCC number: CCL-64) were seeded in DMEM (Invitrogen) supplemented with 10% fetal bovine serum (Pan Biotech) at a defined cell density in 24-well or 96-well plates (24-well plate: 1.5×10^5 cells per well; 96-well plate: 4×10^4 cells per well). Cell cultures were incubated in DMEM at 37° C. and 10% CO2. On the next day, the medium was replaced and cells were serum-starved for 16-20 hours. The following day, serial dilutions of compounds were added to the wells, pre-incubated for 1.5 hrs before recombinant TGF-beta 1 ligand (final concentration 5 ng/ml; R&D systems) was added. After one hour of ligand stimulation, lysates were prepared and analyzed using an enzyme-linked immunosorbent assay kit (PathScan Phospho-Smad2 Kit, Cell Signaling Technologies). The ELISA detects phosphorylated Smad2 as well as phosphorylated Smad3 with the phospho-specific antibody. TGF-beta stimulated cells and unstimulated cells served as positive and negative controls (100% and background control). The concentration of the vehicle DMSO was kept constant at 0.2% (v/v) in all wells. Dose-response relationships were fitted using curve fitting algorithms of the RS1 statistics software package (Brooks Automation Inc. RS/1- Statistical Tools Handbook. Release 6.2) to determine the concentration at which half-maximal inhibition (IC50) of Smad2/3 phosphorylation was achieved.

SMILES | IC50 [1] [nM] | IC50 [2] [nM]
Fc1ccc(Cl)cc1-c1cc(-c2nccc3cnccc23)c2cccnc2n1 [Compound 35, 2-(5-Chloro-2-fluoro-phenyl)-4-[2,6]naphthyridin-1-yl-[1,8]naphthyridine] | < 1000 | < 1000
COc1nccc2c(-c3cc(-c4ccccc4F)nc4ncccc34)nccc12 [Compound 40, 2-(2-Fluoro-phenyl)-4-(5-methoxy-[2,6]naphthyridin-1-yl)-[1,8]naphthyridine] | > 10000 | > 10000
Nc1ccc2cnccc2c1-c1cc(-c2ccccc2F)nc2ncccc12 [Compound 62, 5-[2-(2-Fluoro-phenyl)-[1,8]naphthyridin-4-yl]-isoquinolin-6-ylamine] | < 1000 | 1000 to 10000
Cn1cc(-c2ccc(-c3cc(-c4ccccc4F)nc4ncccc34)c3ccncc23)cn1 [Compound 65, 2-(2-Fluoro-phenyl)-4-[8-(1-methyl-1H-pyrazol-4-yl)-isoquinolin-5-yl]-[1,8]naphthyridine] | < 1000 | < 1000
O=c1c2cnccc2c(-c2cc(-c3ccccc3F)nc3ncccc23)cn1CCO [Compound 67, 4-[2-(2-Fluoro-phenyl)-[1,8]naphthyridin-4-yl]-2-(2-hydroxy-ethyl)-2H-[2,7]naphthyridin-1-one] | < 1000 | 1000 to 10000
O=c1c2cnccc2c(-c2cc(-c3cc(Cl)ccc3F)nc3ncccc23)cn1CCO [Compound 68, 4-[2-(5-Chloro-2-fluoro-phenyl)-[1,8]naphthyridin-4-yl]-2-(2-hydroxy-ethyl)-2H-[2,7]naphthyridin-1-one] | < 1000 | < 1000
O=c1c2cnccc2c(-c2cc(-c3cc(F)ccc3F)nc3ncccc23)cn1CCO [Compound 72, 4-[2-(2,5-Difluoro-phenyl)-[1,8]naphthyridin-4-yl]-2-(2-hydroxy-ethyl)-2H-[2,7]naphthyridin-1-one] | < 1000 | < 1000
O=c1c2cnccc2c(-c2cc(-c3cc(Cl)ccc3F)nc3ncccc23)cn1CCN1CCOCC1 [Compound 76, 4-[2-(5-Chloro-2-fluoro-phenyl)-[1,8]naphthyridin-4-yl]-2-(2-morpholin-4-yl-ethyl)-2H-[2,7]naphthyridin-1-one] | 1000 to 10000 | 1000 to 10000
Fc1ccc(Cl)cc1-c1cc(-c2cnc(OCCN3CCOCC3)c3cnccc23)c2cccnc2n1 [Compound 77, 2-(5-Chloro-2-fluoro-phenyl)-4-[1-(2-morpholin-4-yl-ethoxy)-[2,7]naphthyridin-4-yl]-[1,8]naphthyridine] | < 1000 | < 1000
Fc1ccccc1-c1cc(-c2cnc(OCCN3CCOCC3)c3cnccc23)c2cccnc2n1 [Compound 78, 2-(2-Fluoro-phenyl)-4-[1-(2-morpholin-4-yl-ethoxy)-[2,7]naphthyridin-4-yl]-[1,8]naphthyridine] | < 1000 | 1000 to 10000
O=c1c2cnccc2c(-c2cc(-c3cc(Cl)ccc3F)nc3ncccc23)cn1CC(O)CO (stereo not shown) [Compound 81, 4-[2-(5-Chloro-2-fluoro-phenyl)-[1,8]naphthyridin-4-yl]-2-(2,3-dihydroxy-propyl)-2H-[2,7]naphthyridin-1-one] | < 1000 | < 1000
CN(C)CCOc1ccc(-c2cc(-c3cc(Cl)ccc3F)nc3ncccc23)c2ccncc12 [Compound 82, (2-{5-[2-(5-Chloro-2-fluoro-phenyl)-[1,8]naphthyridin-4-yl]-isoquinolin-8-yloxy}-ethyl)-dimethyl-amine] | < 1000 | < 1000
Fc1ccc(Cl)cc1-c1cc(-c2ccc(Cl)c3cnccc23)c2cccnc2n1 [Compound 83, 2-(5-Chloro-2-fluoro-phenyl)-4-(8-chloro-isoquinolin-5-yl)-[1,8]naphthyridine] | < 1000 | < 1000

Other lines, results leading:

IC50 [1] [nM] | IC50 [2] [nM] | SMILES
< 1000 | < 1000 | Fc1ccccc1-c1cc(-c2ccc(OCCN3CCOCC3)c3cnccc23)c2cccnc2n1 [Compound 25, 2-(2-fluoro-phenyl)-4-[8-(2-morpholin-4-yl-ethoxy)-isoquinolin-5-yl]-[1,8]naphthyridine]
< 1000 | > 10000 | COc1nnc(-c2cc(-c3ccccc3F)nc3ncccc23)c2ccncc12 [Compound 32, 1-[2-(2-Fluoro-phenyl)-[1,8]naphthyridin-4-yl]-4-methoxy-pyrido[3,4-d]pyridazine]
< 1000 | 1000 to 10000 | Fc1ccc(Cl)cc1-c1cc(-c2cncc3ncccc23)c2cccnc2n1 [Compound 37, 5-[2-(5-Chloro-2-fluoro-phenyl)-[1,8]naphthyridin-4-yl]-[1,7]naphthyridine]
< 1000 | < 1000 | Nc1ccc(-c2cc(-c3cc(F)ccc3F)nc3ncccc23)c2ccncc12 [Compound 38, 5-[2-(2,5-Difluoro-phenyl)-[1,8]naphthyridin-4-yl]-isoquinolin-8-ylamine]
1000 to 10000 | < 1000 | Cn1cc(-c2ccc(-c3cc(-c4ccccc4F)nc4ncccc34)c3cnccc23)cn1 [Compound 64, 2-(2-Fluoro-phenyl)-4-[5-(1-methyl-1H-pyrazol-4-yl)-isoquinolin-8-yl]-[1,8]naphthyridine]
< 1000 | < 1000 | Nc1cc2cnccc2c(-c2cc(-c3ccccc3F)nc3ncccc23)n1 [Compound 66, 1-[2-(2-Fluoro-phenyl)-[1,8]naphthyridin-4-yl]-[2,6]naphthyridin-3-ylamine]
< 1000 | < 1000 | COc1ccc2cnccc2c1-c1cc(-c2ccccc2F)nc2ncccc12 [Compound 70, 2-(2-Fluoro-phenyl)-4-(6-methoxy-isoquinolin-5-yl)-[1,8]naphthyridine]
1000 to 10000 | 1000 to 10000 | CN(C)CC(=O)Nc1nccc2c(-c3cc(-c4ccccc4F)nc4ncccc34)nccc12 [Compound 71, 2-Dimethylamino-N-{5-[2-(2-fluoro-phenyl)-[1,8]naphthyridin-4-yl]-[2,6]naphthyridin-1-yl}-acetamide]
1000 to 10000 | 1000 to 10000 | COCC(=O)Nc1nccc2c(-c3cc(-c4ccccc4F)nc4ncccc34)nccc12 [Compound 73, N-{5-[2-(2-Fluoro-phenyl)-[1,8]naphthyridin-4-yl]-[2,6]naphthyridin-1-yl}-2-methoxy-acetamide]
< 1000 | < 1000 | Cn1cc(-c2cc(-c3cc(Cl)ccc3F)nc3ncccc23)c2ccncc2c1=O [Compound 74, 4-[2-(5-Chloro-2-fluoro-phenyl)-[1,8]naphthyridin-4-yl]-2-methyl-2H-[2,7]naphthyridin-1-one]
< 1000 | < 1000 | O=c1c2cnccc2c(-c2cc(-c3cc(Cl)ccc3F)nc3ncccc23)cn1CCCO [Compound 75, 4-[2-(5-Chloro-2-fluoro-phenyl)-[1,8]naphthyridin-4-yl]-2-(3-hydroxy-propyl)-2H-[2,7]naphthyridin-1-one]
< 1000 | < 1000 | Nc1nccc2c(-c3cc(-c4ccccc4F)nc4ncccc34)ccc(OCCO)c12 [Compound 79, 2-{1-Amino-5-[2-(2-fluoro-phenyl)-[1,8]naphthyridin-4-yl]-isoquinolin-8-yloxy}-ethanol]
< 1000 | < 1000 | Cc1ccc(-c2cc(-c3nccc4c(N)nccc34)c3cccnc3n2)o1 [Compound 84, 5-[2-(5-Methyl-furan-2-yl)-[1,8]naphthyridin-4-yl]-[2,6]naphthyridin-1-ylamine]
